From patent US20080207538A1, “Enhanced Production of Functional Proteins From Defective Genes” (priority 2004, published 2008)

Legend:
[1] = test system: stop codon inserted into the reading frame of firefly luciferase; assay: stop codon read-through, dual luciferase assay in transfected 293T cells; format: cell-based, human; conditions: relative to untreated transfected cells, 24 hour incubation
Protocol: Plasmid construction. The wild type human fibroblast cell line GM02037 (Coriell Cell Repositories, NJ) was used as the DNA template for atm promoter amplification. In brief, the Qiagen Blood & Cell Culture DNA Mini kit was used to purify genomic DNA. ATM gene promoter primers, which were used to amplify the desired fragment DNA, were designed based on the sequence in Genebank. The forward primer sequence employed was […] (SEQ ID NO:1) and the reverse primer was […] (SEQ ID NO:2). PCR was carried out using the Roche Expand High Fidelity PCR system. The amplified atm promoter region was then cloned into the TOPO2.1 PCR vector (Invitrogen) for sequencing verification and subsequently subcloned into the promoterless plasmid PA3Luc. Firefly luciferase cDNA was mutated (QuikChange Site-Directed Mutagenesis Kit) in the desired region to furnish the three stop codons, as shown as FIG. 1(C). The CMV driven Renilla luciferase plasmid was purchased from Promega as the internal control for the dual luciferase assay.
Transfections were performed using GeneJammer reagent (Stratagene) based on the protocol from the manufacturer. In brief, approximately […] HEK293T cells were seeded into white 96 well plates (Corning) and grown for less than 24 hours. Cells were transfected with 0.6 μL of GeneJammer and 0.1 μg plasmids. In the dual luciferase assay, the plasmid ratio of ATM promoter-driven firefly luciferase to CMV promoter-driven Renilla luciferase was 30:1. In the dual luciferase experiments that utilized the stop codon-containing firefly luciferase genes, the ratio was 40:1. On the second day after transfection, the medium in each well was changed, and the promoter and/or nonsense-suppressing agents added to the wells for a 24 hour incubation period. The cells were subsequently lysed and promoter activity/nonsense suppression efficiency then assessed via the dual luciferase assay.
Dual luciferase assay. The dual luciferase kit was purchased from Promega and the protocol employed was conducted according to the directions supplied by the manufacturer. In brief, cells were washed with PBS and lysates were prepared using passive lysis buffer. Luminescence was determined with a Molecular Devices Lmax 96 well plate luminometer. Light emission was measured after each of the 100 μL luminescence substrates and/or stop solutions were injected. ATM promoter activity was calculated by the ratio of relative light units of flash (firefly) to glow (renilla) luminescence in each well, which was compared with control wells (cultured only in medium with plasmid but no drug treatment) in each plate. In the case of the stop codon suppression studies, controls also included cells containing the plasmids without the inserted stop codon, which were treated with nonsense suppressing and/or promoter activating agents. All individual treatments in a given experiment were performed in triplicate and all experiments repeated 3-10 times.
An evaluation was made of the ability of aminoglycosides, in combination with promoter activating agents, to augment read-through of a stop codon inserted into the reading frame of firefly luciferase (FIG. 1C).

atm message = assay: atm mRNA quantitation by real time PCR (RT-PCR) after drug treatment; format: cell-based, human; conditions: for Fold-increase (atm message levels): relative to untreated cell line
Protocol: Cell culture and transfection. Human Kidney HEK293T cell was a gift from Professor Philipp Scherer in the Department of Cell Biology at the Albert Einstein College of Medicine. All other cell lines were purchased from Coriell Cell Repositories, NJ. HEK293T cells were maintained in Dulbecco's Modified Eagle Medium with 1 g/L D-glucose and 10% fetal bovine serum. The Human AT fibroblast cell line GM05823 was cultured in MEM medium with 1 g/L D-glucose and 15% fetal bovine serum. The Human lympoblastoid cell lines GM 13810 and GM13860 were cultured in RPMI 1640 medium with 10% heat inactivated fetal bovine serum and 1 g/L of D-glucose. All cell lines were incubated at 37° C. in a humidified 5% CO2 atmosphere.
mRNA Quantitation. Single-stranded cDNAs were synthesized by reverse transcription, using a First Strand cDNA Synthesis kit (Invitrogen), and then used as a template in polymerase chain reactions. ATM mRNA was primarily quantified using real time polymerase chain reaction (PCR). In brief, cells were treated with the desired drugs or combinations thereof under conditions identical to those described above for the dual luciferase assay. Cells were lysed and RNA extracted with the TRIzol reagent (Invitrogen). Approximately 1 μg of total RNA in each sample was subjected to CDNA synthesis using the First Strand cDNA Synthesis kit (Invitrogen). In the real time PCR reaction, the FAM labeled MGB probe, CCAGCTATTTGGTTTGAG (SEQ ID NO:3), was designed by the Primer Express software from Applied Biosystems (AB) and synthesized by AB. The human β-actin MGB probes, VIC or FAM fluorescently labeled, were purchased from AB. All other reaction reagents were purchased from AB. PCR reactions were performed using the ABI PRISM 7000 Sequence Detection System in triplicate. Some samples were also tested on the ABI 7700 Sequence Detection System for verification and essentially identical results were obtained with both real time PCR instruments. All collected data were compared with a […] control. In addition to real time PCR, the branched chain DNA (bDNA) RNA quantitation method was employed as well. Briefly, the QuantiGene kit as well as the customer designed atm probe sets were purchased from Genospectra. The latter probes target the same region on the atm message RNA region as the real time PCR probes. The cells were treated as described above for the dual luciferase assay. Cell lysates were transferred into a capture plate and atm mRNA allowed to hybridize with the probe set at 53° C. overnight. After 16-20 hours, the signal was amplified and subsequently read using a Molecular Devices Lmax luminometer. The internal human β-actin probe sets were purchased from Genospectra. All experiments were performed in triplicate.
The effect of ofloxacin on native atm message levels was subsequently examined in 293T cells as well as in lymphoblastoid and primary fibroblast cell lines derived from A-T patients (Table 1). Message levels are enhanced 2.4±0.1 fold in 293T cells treated with ofloxicin for 24 hours. By contrast, an up to nearly 6-fold increase is observed in ATM-deficient (A-T) cell lines. The latter results offer the intriguing possibility that atm message levels are elevated more dramatically in an ATM-deficient environment.

[2] = test system: animal models of cystic fibrosis and Duchenne muscular dystrophy; conditions: reported; cited from earlier work
nonsense mutations = conditions: reported, Keeling and Bedwell, 2002; cited from earlier work
atm promoter = assay: cell-based screen for atm promoter enhancing agents (atm/pA3LUC dual luciferase, 293T cells); set-up: species or system human; conditions: transiently transfected 293T cells; firefly/renilla luciferase
Text: Plasmid construction. The wild type human fibroblast cell line GM02037 (Coriell Cell Repositories, NJ) was used as the DNA template for atm promoter amplification. In brief, the Qiagen Blood & Cell Culture DNA Mini kit was used to purify genomic DNA. ATM gene promoter primers, which were used to amplify the desired fragment DNA, were designed based on the sequence in Genebank. The forward primer sequence employed was […] (SEQ ID NO:1) and the reverse primer was GCCACGGGAGGAGGCGAG (SEQ ID NO:2). PCR was carried out using the Roche Expand High Fidelity PCR system. […]
Transfections were performed using GeneJammer reagent (Stratagene) based on the protocol from the manufacturer. […] The cells were subsequently lysed and promoter activity/nonsense suppression efficiency then assessed via the dual luciferase assay.
Dual luciferase assay. […] Luminescence was determined with a Molecular Devices Lmax 96 well plate luminometer. Light emission was measured after each of the 100 μL luminescence substrates and/or stop solutions were injected. ATM promoter activity was calculated by the ratio of relative light units of flash (firefly) to glow (renilla) luminescence in each well, which was compared with control wells (cultured only in medium with plasmid but no drug treatment) in each plate. […]

[3] = test system: patients with sickle-cell anemia; conditions: Perrine et al., 1993; cited from earlier work

Compound: CN[C@@H]1[C@@H](O)[C@@H](O[C@@H]2[C@@H](O)[C@H](O[C@H]3O[C@H]([C@@H](C)O)[C@@H](O)[C@H](O)[C@H]3N)[C@@H](N)C[C@H]2N)OC[C@]1(C)O [Geneticin, geneticin]
- Fold-increase (read-through) ([1]; amber (UAG) stop codon): 14.9 ± 1.9 fold
- Fold-increase (read-through) ([1]; ochre (UAA) stop codon): 7.9 ± 3.0 fold
- Fold-increase (read-through) ([1]; opal (UGA) stop codon): 6.5 ± 0.8 fold

Compound: CC1COc2c(N3CCN(C)CC3)c(F)cc3c(=O)c(C(=O)O)cn1c23 (stereo not shown) [Ofloxacin, ofloxacin]
- Message levels enhanced (atm) (atm message; 293T cells, treated for 24 hours): 2.4±0.1 fold
- increase in atm message levels (atm message; ATM-deficient (A-T) cell lines, summary of Table 1): ≤ 6 fold
- Fold-increase (atm message levels) (atm message; GM05823 (A-T) fibroblast cell line, 2 hours after ofloxacin): 2.2 ± 0.1 fold
- Fold-increase (atm message levels) (atm message; GM05823 (A-T) fibroblast cell line, 6 hours after ofloxacin): 3.0 ± 0.2 fold
- Fold-increase (atm message levels) (atm message; GM05823 (A-T) fibroblast cell line, 24 hours after ofloxacin): 5.8 ± 0.4 fold
- Fold-increase (atm message levels) (atm message; GM13810 (A-T) lymphoblastoid cell line, 2 hours after ofloxacin): 1.2 ± 0.2 fold
- Fold-increase (atm message levels) (atm message; GM13810 (A-T) lymphoblastoid cell line, 6 hours after ofloxacin): 2.3 ± 0.3 fold
- Fold-increase (atm message levels) (atm message; GM13810 (A-T) lymphoblastoid cell line, 24 hours after ofloxacin): 5.4 ± 0.7 fold
- Fold-increase (atm message levels) (atm message; GM13860 (A-T) lymphoblastoid cell line, 2 hours after ofloxacin): 3.8 ± 0.9 fold
- Fold-increase (atm message levels) (atm message; GM13860 (A-T) lymphoblastoid cell line, 6 hours after ofloxacin): 2.3 ± 0.3 fold
- Fold-increase (atm message levels) (atm message; GM13860 (A-T) lymphoblastoid cell line, 24 hours after ofloxacin): 3.3 ± 0.3 fold

Compound: O=C(O)c1cccc(-c2noc(-c3ccccc3F)n2)c1 [PTC124]
- efficacy in animal models [2]: effective

Compound: gentamicin
- effectiveness at suppressing nonsense mutations compared with tobramycin (nonsense mutations): more effective
- Fold-increase (read-through) ([1]; amber (UAG) stop codon): 8.2 ± 1.8 fold
- Fold-increase (read-through) ([1]; ochre (UAA) stop codon): 6.7 ± 1.5 fold
- Fold-increase (read-through) ([1]; opal (UGA) stop codon): 8.7 ± 1.2 fold

Compound: Nc1nc2nc[nH]c2c(=S)[nH]1 [Thioguanine, thioguanine]
- activation of the atm promoter (atm promoter): induce atm promoter activity

Compound: NCC[C@H](O)C(=O)N[C@@H]1C[C@H](N)[C@@H](O[C@H]2O[C@H](CN)[C@@H](O)[C@H](O)[C@H]2O)[C@H](O)[C@H]1O[C@H]1O[C@H](CO)[C@@H](O)[C@H](N)[C@H]1O [amikacin]
- effectiveness at suppressing nonsense mutations compared with tobramycin (nonsense mutations): more effective

Compound: CCCC(=O)[O-].[Na+] [Sodium butyrate, sodium butyrate]
- toxicity in patients [3]: minimal toxicity
